Results as given in the supplement of paper PMC11061612.

Assays:
Assay in all cases: combination Emax (second highest fraction inhibited in the dose matrix, 72 h); higher = more inhibition; extreme values may be limits of the assay
[1] = tested on: CAL-78 (Chondrosarcoma)
Procedure, shortened: (§1)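 Cell lines in DMEM/F12 or RPMI with 10% FBS were plated in 1536-well plates, held 24 hours at 37°C, 5% CO2, then given two-drug dose matrices for 72 hours (DMSO typically 0.2%). Viability was read by CellTiter-Glo 2.0 luminescence and scaled as inhibition from 0 (vehicle wells) to 1 (blank wells). Combination Emax is the second-highest inhibition in the matrix; Bliss excess is observed combination effect minus expected EA + EB − EA·EB, EA and EB being single-agent effects.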

[2] = tested on: CFPAC-1 (Pancreatic Carcinoma)
Procedure, shortened: as §1

[3] = tested on: COR-L23 (Non-Small Cell Lung Carcinoma)
Procedure, shortened: as §1

[4] = tested on: COR-L95 (Small Cell Lung Carcinoma)
Procedure, shortened: as §1

[5] = tested on: ES7 (Ewing's Sarcoma)
Procedure, shortened: as §1

[6] = tested on: G-292-Clone-A141B1 (Osteosarcoma)
Procedure, shortened: as §1

[7] = tested on: HCC2157 (Breast Carcinoma)
Procedure, shortened: as §1

[8] = tested on: HPAC (Pancreatic Carcinoma)
Procedure, shortened: as §1

[9] = tested on: HT-29 (Colorectal Carcinoma)
Procedure, shortened: as §1

[10] = tested on: J82 (Bladder Carcinoma)
Procedure, shortened: as §1

[11] = tested on: KARPAS-620 (Plasma Cell Myeloma)
Procedure, shortened: as §1

[12] = tested on: LU-99A (Non-Small Cell Lung Carcinoma)
Procedure, shortened: as §1

[13] = tested on: MDA-MB-231 (Breast Carcinoma)
Procedure, shortened: as §1

[14] = tested on: NALM-6 (B-Lymphoblastic Leukemia)
Procedure, shortened: as §1

[15] = tested on: SNU-C5 (Colorectal Carcinoma)
Procedure, shortened: as §1

[16] = tested on: SUIT-2 (Pancreatic Carcinoma)
Procedure, shortened: as §1

[17] = tested on: SW1088 (Low Grade Glioma)
Procedure, shortened: as §1

[18] = tested on: SW1783 (Low Grade Glioma)
Procedure, shortened: as §1

[19] = tested on: TE-5 (Esophageal Squamous Cell Carcinoma)
Procedure, shortened: as §1

[20] = tested on: TGBC24TKB (Biliary Tract Carcinoma)
Procedure, shortened: as §1

SMILES: Cn1cnc2c(F)c(Nc3ccc(Br)cc3Cl)c(C(=O)NOCCO)cc21 [Selumetinib] + CC(C)n1c(=O)n(C)c2cnc3cc(F)c(-c4ccc(OCCCN5CCCCC5)nc4)cc3c21 [AZD1390] (first compound max 10 µM, 7x7, partner max 0.3 µM)
- combination Emax [1]: 0.136
- combination Emax [2]: 0.202
- combination Emax [3]: 0.268
- combination Emax [4]: 0.18
- combination Emax [5]: 0.14
- combination Emax [6]: 0.0339
- combination Emax [7]: 0.238
- combination Emax [8]: 0.678
- combination Emax [9]: 0.709
- combination Emax [10]: 0.787
- combination Emax [11]: 0.472
- combination Emax [12]: 0.358
- combination Emax [13]: 0.501
- combination Emax [14]: 0.205
- combination Emax [15]: 0.351
- combination Emax [16]: 0.284
- combination Emax [17]: 0.14
- combination Emax [18]: 0.0665
- combination Emax [19]: 0.137
- combination Emax [20]: 0.828

SMILES: COc1nnc2ccc(N3CCC(c4ccc(OCCN5CCN(C)C(=O)[C@H]5C)cc4)CC3)nn12 [AZD5153] + C[C@@H]1COCCN1C2=NC(=NC(=C2)C3(CC3)[S@](=N)(=O)C)C4=C5C=CNC5=NC=C4 [AZD6738] (first compound max 1 µM, 7x7, partner max 10 µM)
- combination Emax [1]: 0.515
- combination Emax [2]: 0.574
- combination Emax [3]: 0.772
- combination Emax [4]: 0.547
- combination Emax [5]: 0.952
- combination Emax [6]: 0.458
- combination Emax [7]: 1
- combination Emax [8]: 0.71
- combination Emax [9]: 0.863
- combination Emax [10]: 0.604
- combination Emax [11]: 0.835
- combination Emax [12]: 0.755
- combination Emax [13]: 0.81
- combination Emax [14]: 0.958
- combination Emax [15]: 0.816
- combination Emax [16]: 0.671
- combination Emax [17]: 0.645
- combination Emax [18]: 0.515
- combination Emax [19]: 0.503
- combination Emax [20]: 0.855

SMILES: Cc1cc2ncnn2cc1Nc1ncc2c(n1)n(C1CCOCC1)c(=O)n2C [AZD7648] + O=C(c1cc(Cc2n[nH]c(=O)c3ccccc23)ccc1F)N1CCN(C(=O)C2CC2)CC1 [Olaparib] (first compound max 10 µM, 7x7, partner max 10 µM)
- combination Emax [1]: 0.252
- combination Emax [2]: 0.197
- combination Emax [3]: 0.212
- combination Emax [4]: 0.363
- combination Emax [5]: 0.846
- combination Emax [6]: 0.121
- combination Emax [7]: 0.413
- combination Emax [8]: 0.0971
- combination Emax [9]: 0.0989
- combination Emax [10]: 0.351
- combination Emax [11]: 0.394
- combination Emax [12]: 0.55
- combination Emax [13]: 0.266
- combination Emax [14]: 0.513
- combination Emax [15]: 0.24
- combination Emax [16]: 0.205
- combination Emax [17]: 0.303
- combination Emax [18]: 0.14
- combination Emax [19]: 0.162
- combination Emax [20]: 0.276

SMILES: COc1cccc(OCCCN)c1-c1cc(Nc2cnc(C#N)cn2)n[nH]1 [Prexasertib] + CN(C)CCCOc1ccc(-c2ccc3ncc4c(c3c2)n(C2CCOCC2)c(=O)n4C)cn1 [AZD0156] (first compound max 1 µM, 7x7, partner max 1 µM)
- combination Emax [1]: 0.525
- combination Emax [2]: 0.618
- combination Emax [3]: 0.683
- combination Emax [4]: 0.644
- combination Emax [5]: 0.838
- combination Emax [6]: 0.33
- combination Emax [7]: 0.976
- combination Emax [8]: 0.795
- combination Emax [9]: 0.858
- combination Emax [10]: 0.407
- combination Emax [11]: 0.896
- combination Emax [12]: 0.823
- combination Emax [13]: 0.743
- combination Emax [14]: 0.923
- combination Emax [15]: 0.889
- combination Emax [16]: 0.682
- combination Emax [17]: 0.797
- combination Emax [18]: 0.445
- combination Emax [19]: 0.543
- combination Emax [20]: 0.863

SMILES: CC1(C)CCC(CN2CCN(c3ccc(C(=O)NS(=O)(=O)c4ccc(NCC5CCOCC5)c([N+](=O)[O-])c4)c(Oc4cnc5[nH]ccc5c4)c3)CC2)=C(c2ccc(Cl)cc2)C1 [Venetoclax] + Cc1cc2ncnn2cc1Nc1ncc2c(n1)n(C1CCOCC1)c(=O)n2C [AZD7648] (first compound max 1 µM, 7x7, partner max 10 µM)
- combination Emax [1]: 0.234
- combination Emax [2]: 0.275
- combination Emax [3]: 0.164
- combination Emax [4]: 0.607
- combination Emax [5]: 0.714
- combination Emax [6]: 0.221
- combination Emax [7]: 0.628
- combination Emax [8]: 0.288
- combination Emax [9]: 0.205
- combination Emax [10]: 0.131
- combination Emax [11]: 0.989
- combination Emax [12]: 0.404
- combination Emax [13]: 0.356
- combination Emax [14]: 0.789
- combination Emax [15]: 0.261
- combination Emax [16]: 0.198
- combination Emax [17]: 0.341
- combination Emax [18]: 0.237
- combination Emax [19]: 0.284
- combination Emax [20]: 0.332

SMILES: CN(C)CCCOc1ccc(-c2ccc3ncc4c(c3c2)n(C2CCOCC2)c(=O)n4C)cn1 [AZD0156] + C[C@@H]1COCCN1C2=NC(=NC(=C2)C3(CC3)[S@](=N)(=O)C)C4=C5C=CNC5=NC=C4 [AZD6738] (first compound max 1 µM, 7x7, partner max 10 µM)
- combination Emax [1]: 0.41
- combination Emax [2]: 0.434
- combination Emax [3]: 0.687
- combination Emax [4]: 0.525
- combination Emax [5]: 0.846
- combination Emax [6]: 0.263
- combination Emax [7]: 0.955
- combination Emax [8]: 0.761
- combination Emax [9]: 0.823
- combination Emax [10]: 0.396
- combination Emax [11]: 0.644
- combination Emax [12]: 0.784
- combination Emax [13]: 0.736
- combination Emax [14]: 0.903
- combination Emax [15]: 0.807
- combination Emax [16]: 0.71
- combination Emax [17]: 0.57
- combination Emax [18]: 0.257
- combination Emax [19]: 0.481
- combination Emax [20]: 0.796
